ChEMBL document CHEMBL5543172, “Novel Isoalantolactone-Based Derivatives as Potent NLRP3 Inflammasome Inhibitors: Design, Synthesis, and Biological Characterization” (J Med Chem, 2024)
The source made the active and inactive calls. The rule behind the calls is not given here.

Legend:
[1] = target: Transient receptor potential cation channel subfamily V member 1 (Homo sapiens) (UniProt Q8NER1); test: Activation of TRPV1 (unknown origin) at 1 uM relative to control
[2] = target: Muscarinic acetylcholine receptor M3 (Homo sapiens) (UniProt P20309); test: Activation of muscarinic M3 receptor (unknown origin) at 1 uM relative to control
[3] = target: Sodium-dependent noradrenaline transporter (Homo sapiens) (UniProt P23975); test: Activation of NET (unknown origin) at 1 uM relative to control
[4] = target: 5-hydroxytryptamine receptor 7 (Homo sapiens) (UniProt P34969); test: Activation of 5-HT7 receptor (unknown origin) at 1 uM relative to control
BMDM [5] = test: Cytotoxicity against mouse BMDM cells at 0.25 to 2 uM measured after 24 hrs by CCK-8 method; assay type: toxicity, cell-based; conditions: dose 0.25-2 µM
[6] = target: Voltage-gated inwardly rectifying potassium channel KCNH2 (Homo sapiens, UniProt Q12809); test: Inhibition of human ERG expressed in HEK293 cells; assay type: toxicity, cell-based
[7] = Genotoxicity in mouse BMDM cells; assay type: toxicity, cell-based
BMDM [8] = test: Inhibition of pyroptosis in LPS/nigericin induced […] cells assessed as reduction in […] at […] preincubated with LPS for 3 hrs followed by compound addition for 40 mins and further stimulated with nigericin for 40 mins by LDH assay; assay type: functional, cell-based; conditions: dose lower 0.25 µM, time 80.0 min
[9] = target: P2X purinoceptor 3 (Homo sapiens) (UniProt P56373); test: Inhibition of P2X3 (unknown origin) at 1 uM relative to control
[10] = target: Histamine H1 receptor (Homo sapiens) (UniProt P35367); test: Inhibition of Histamine H1 receptor (unknown origin) at 1 uM relative to control
[11] = target: Mu-type opioid receptor (Homo sapiens) (UniProt P35372); test: Inhibition of mu opioid receptor (unknown origin) at 1 uM relative to control
[12] = target: NACHT, LRR and PYD domains-containing protein 3 (Mus musculus) (UniProt Q8R4B8); test: Inhibition of NLRP3 inflammasome activation in LPS/Nigericin induced mouse BMDM cells assessed as effect on NLRP3 expression at 0.25 to 1 uM preincubated with LPS for 3 hrs followed by compound addition for 40 mins and further stimulated with nigericin for 40 mins by Western blot analysis; assay type: cell-based; conditions: dose 0.25-1 µM, time 80.0 min
[13] = target: Glucocorticoid receptor (Homo sapiens) (UniProt P04150); test: Inhibition of GR receptor (unknown origin) at 1 uM relative to control
HEK293T [14] = test: Inhibition of HA-NLRP3 C279A mutant/FLAG tagged NEK7 interaction (unknown origin) transfected in HEK293T cells at 1 uM incubated for 24 hrs by Western blot analysis; assay type: cell-based; conditions: Homo sapiens
[15] = Drug distribution in C57BL/6 mouse plasma at 30 mg/kg, ip measured after 0.5 hrs by LC-MS/MS analysis; assay type: ADME, organism-based
[16] = Metabolic stability in human liver microsomes assessed as half life preincubated for 5 mins followed by NADPH addition and measured upto 60 mins by LC-MS/MS analysis; assay type: ADME, Microsome; conditions: time < 65 min
[17] = target: Prostaglandin E2 receptor EP2 subtype (Homo sapiens) (UniProt P43116); test: Inhibition of EP2 receptor (unknown origin) at 1 uM relative to control
[18] = target: 3',5'-cyclic-AMP phosphodiesterase 4D (Homo sapiens) (UniProt Q08499); test: Activation of PDE4D2 (unknown origin) at 1 uM relative to control
HEK293T [19] = test: Inhibition of HA-NLRP3/FLAG tagged NEK7 interaction (unknown origin) transfected in HEK293T cells at 1 uM incubated for 24 hrs by Western blot analysis; assay type: cell-based; conditions: Homo sapiens
[20] = target: Substance-P receptor (Homo sapiens) (UniProt P25103); test: Inhibition of NK1 receptor (unknown origin) at 1 uM relative to control
[21] = target: Sodium-dependent serotonin transporter (Homo sapiens) (UniProt P31645); test: Inhibition of 5-HTT (unknown origin) at 1 uM relative to control
Mus musculus = test: Anti-colitis activity against DSS-induced ulcerative colitis C57BL/6 mouse model assessed as alleviation of reduced crypt count at 15 to 30 mg/kg, ip administered daily and measured after 10 days by H and E staining based analysis; assay type: functional, organism-based; conditions: dose 15-30 mg/kg, time 10.0 day
[22] = target: Substance-K receptor (Homo sapiens) (UniProt P21452); test: Inhibition of NK2 receptor (unknown origin) at 1 uM relative to control
THP-1 = test: Inhibition of NLRP3-ASC interaction in LPS/nigericin stimulated human THP-1 cells at 1 uM preincubated with LPS for 3 hrs followed by compound addition for 40 mins and further stimulated with nigericin for 40 mins by immunoprecipitation analysis; assay type: cell-based; conditions: time 80.0 min
[23] = target: Cannabinoid receptor 2 (Homo sapiens) (UniProt P34972); test: Activation of CB2 receptor (unknown origin) at 1 uM relative to control
[24] = Metabolic stability in mouse liver microsomes assessed as half life preincubated for 5 mins followed by NADPH addition and measured upto 60 mins by LC-MS/MS analysis; assay type: ADME, Microsome; conditions: time < 65 min
[25] = target: Prostaglandin E2 receptor EP2 subtype (Homo sapiens) (UniProt P43116); test: Activation of EP2 receptor (unknown origin) at 1 uM relative to control
[26] = Drug distribution in C57BL/6 mouse plasma at 30 mg/kg, ip measured after 2 hrs by LC-MS/MS analysis; assay type: ADME, organism-based
[27] = target: Mu-type opioid receptor (Homo sapiens) (UniProt P35372); test: Activation of mu opioid receptor (unknown origin) at 1 uM relative to control
[28] = target: Substance-K receptor (Homo sapiens) (UniProt P21452); test: Activation of NK2 receptor (unknown origin) at 1 uM relative to control
[29] = target: NACHT, LRR and PYD domains-containing protein 3 (Mus musculus) (UniProt Q8R4B8); test: Inhibition of NLRP3 inflammasome activation in LPS/Nigericin induced mouse BMDM cells assessed as effect on pro-IL-1 beta expression at 0.25 to 1 uM preincubated with LPS for 3 hrs followed by compound addition for 40 mins and further stimulated with nigericin for 40 mins by Western blot analysis; assay type: cell-based; conditions: dose 0.25-1 µM, time 80.0 min
[30] = target: NACHT, LRR and PYD domains-containing protein 3 (Mus musculus) (UniProt Q8R4B8); test: Inhibition of NLRP3 in LPS/nigericin induced […] mouse BMDM cells assessed as inhibition of IL-18 secretion 0.25 to 1 uM preincubated with LPS for 3 hrs followed by compound addition for 40 mins and further stimulated with nigericin for 40 mins by ELISA method; assay type: cell-based; conditions: dose 0.25-1 µM, time 80.0 min

Chain of NACHT, LRR and PYD domains-containing protein 3 (Mus musculus) (Q8R4B8 whole entry, the tested form may be a part): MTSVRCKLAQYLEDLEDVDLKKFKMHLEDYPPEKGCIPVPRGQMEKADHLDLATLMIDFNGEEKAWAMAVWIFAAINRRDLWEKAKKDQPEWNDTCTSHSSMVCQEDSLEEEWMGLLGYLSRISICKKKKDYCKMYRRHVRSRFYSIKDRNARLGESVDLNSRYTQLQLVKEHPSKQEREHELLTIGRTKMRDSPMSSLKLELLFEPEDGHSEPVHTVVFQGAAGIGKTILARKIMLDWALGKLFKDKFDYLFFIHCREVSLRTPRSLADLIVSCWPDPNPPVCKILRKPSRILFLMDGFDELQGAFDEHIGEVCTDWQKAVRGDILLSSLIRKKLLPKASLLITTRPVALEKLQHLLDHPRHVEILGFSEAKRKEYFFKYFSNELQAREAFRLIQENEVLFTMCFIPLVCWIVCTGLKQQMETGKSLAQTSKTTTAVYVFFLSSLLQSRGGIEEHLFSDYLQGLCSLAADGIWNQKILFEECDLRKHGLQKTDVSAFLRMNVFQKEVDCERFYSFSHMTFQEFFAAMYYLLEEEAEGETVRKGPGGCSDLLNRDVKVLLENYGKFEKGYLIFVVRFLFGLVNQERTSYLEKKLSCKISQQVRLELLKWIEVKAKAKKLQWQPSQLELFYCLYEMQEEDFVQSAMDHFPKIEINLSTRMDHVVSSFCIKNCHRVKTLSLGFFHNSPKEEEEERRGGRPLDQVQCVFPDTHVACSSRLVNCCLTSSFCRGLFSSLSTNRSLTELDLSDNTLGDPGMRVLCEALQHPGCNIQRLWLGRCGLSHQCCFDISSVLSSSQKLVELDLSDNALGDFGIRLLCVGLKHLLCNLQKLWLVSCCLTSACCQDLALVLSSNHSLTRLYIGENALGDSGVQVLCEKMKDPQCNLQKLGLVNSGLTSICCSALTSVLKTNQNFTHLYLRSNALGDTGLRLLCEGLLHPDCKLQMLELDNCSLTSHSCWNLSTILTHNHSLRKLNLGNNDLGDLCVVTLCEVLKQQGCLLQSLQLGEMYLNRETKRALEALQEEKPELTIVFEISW
Chain of Substance-K receptor (Homo sapiens) (P21452 whole entry, the tested form may be a part): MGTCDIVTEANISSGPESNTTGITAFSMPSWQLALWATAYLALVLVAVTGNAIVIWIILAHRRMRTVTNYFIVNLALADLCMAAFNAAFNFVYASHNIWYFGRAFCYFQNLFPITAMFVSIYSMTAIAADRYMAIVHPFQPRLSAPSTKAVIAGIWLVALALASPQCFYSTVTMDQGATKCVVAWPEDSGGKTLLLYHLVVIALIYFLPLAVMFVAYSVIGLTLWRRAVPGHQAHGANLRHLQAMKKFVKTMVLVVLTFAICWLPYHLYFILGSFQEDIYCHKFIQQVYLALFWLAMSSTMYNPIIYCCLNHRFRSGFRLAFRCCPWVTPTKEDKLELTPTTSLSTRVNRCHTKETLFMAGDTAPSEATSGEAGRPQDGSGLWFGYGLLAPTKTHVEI
Chain of Prostaglandin E2 receptor EP2 subtype (Homo sapiens) (P43116 whole entry): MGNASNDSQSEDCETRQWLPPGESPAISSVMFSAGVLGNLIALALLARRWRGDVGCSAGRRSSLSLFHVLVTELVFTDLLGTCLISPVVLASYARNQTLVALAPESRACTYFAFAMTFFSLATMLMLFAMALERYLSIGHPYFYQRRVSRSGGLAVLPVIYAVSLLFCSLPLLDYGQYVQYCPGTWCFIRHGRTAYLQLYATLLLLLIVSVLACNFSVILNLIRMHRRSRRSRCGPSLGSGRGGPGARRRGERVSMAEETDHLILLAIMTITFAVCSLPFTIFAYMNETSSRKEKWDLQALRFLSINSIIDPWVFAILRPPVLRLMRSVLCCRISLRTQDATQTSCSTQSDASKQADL
Chain of Mu-type opioid receptor (Homo sapiens) (P35372 whole entry, the tested form may be a part): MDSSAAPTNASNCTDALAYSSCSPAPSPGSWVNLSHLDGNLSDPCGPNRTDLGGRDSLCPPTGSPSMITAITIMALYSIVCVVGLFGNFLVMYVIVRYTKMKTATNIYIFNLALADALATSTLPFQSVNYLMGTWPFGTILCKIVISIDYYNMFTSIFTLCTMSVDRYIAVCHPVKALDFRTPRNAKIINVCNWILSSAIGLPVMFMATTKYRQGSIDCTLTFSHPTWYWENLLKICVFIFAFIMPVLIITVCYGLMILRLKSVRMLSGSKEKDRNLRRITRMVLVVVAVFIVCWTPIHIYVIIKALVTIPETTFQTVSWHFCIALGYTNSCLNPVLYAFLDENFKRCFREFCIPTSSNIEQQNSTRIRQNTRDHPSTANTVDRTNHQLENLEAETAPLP
Chain of 5-hydroxytryptamine receptor 7 (Homo sapiens) (P34969 whole entry): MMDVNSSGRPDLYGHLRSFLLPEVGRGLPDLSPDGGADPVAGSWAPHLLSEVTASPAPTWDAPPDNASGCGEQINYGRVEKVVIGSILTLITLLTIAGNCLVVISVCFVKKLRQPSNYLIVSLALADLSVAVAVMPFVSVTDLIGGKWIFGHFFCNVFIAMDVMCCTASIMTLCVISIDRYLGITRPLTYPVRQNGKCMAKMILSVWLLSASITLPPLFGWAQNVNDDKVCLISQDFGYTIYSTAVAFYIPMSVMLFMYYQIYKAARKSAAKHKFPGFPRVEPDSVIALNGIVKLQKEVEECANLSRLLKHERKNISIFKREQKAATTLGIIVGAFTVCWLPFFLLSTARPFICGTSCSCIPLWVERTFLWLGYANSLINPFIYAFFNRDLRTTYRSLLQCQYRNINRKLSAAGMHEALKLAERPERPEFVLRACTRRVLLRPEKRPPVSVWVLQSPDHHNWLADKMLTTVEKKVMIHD
Chain of Voltage-gated inwardly rectifying potassium channel KCNH2 (Q12809 whole entry): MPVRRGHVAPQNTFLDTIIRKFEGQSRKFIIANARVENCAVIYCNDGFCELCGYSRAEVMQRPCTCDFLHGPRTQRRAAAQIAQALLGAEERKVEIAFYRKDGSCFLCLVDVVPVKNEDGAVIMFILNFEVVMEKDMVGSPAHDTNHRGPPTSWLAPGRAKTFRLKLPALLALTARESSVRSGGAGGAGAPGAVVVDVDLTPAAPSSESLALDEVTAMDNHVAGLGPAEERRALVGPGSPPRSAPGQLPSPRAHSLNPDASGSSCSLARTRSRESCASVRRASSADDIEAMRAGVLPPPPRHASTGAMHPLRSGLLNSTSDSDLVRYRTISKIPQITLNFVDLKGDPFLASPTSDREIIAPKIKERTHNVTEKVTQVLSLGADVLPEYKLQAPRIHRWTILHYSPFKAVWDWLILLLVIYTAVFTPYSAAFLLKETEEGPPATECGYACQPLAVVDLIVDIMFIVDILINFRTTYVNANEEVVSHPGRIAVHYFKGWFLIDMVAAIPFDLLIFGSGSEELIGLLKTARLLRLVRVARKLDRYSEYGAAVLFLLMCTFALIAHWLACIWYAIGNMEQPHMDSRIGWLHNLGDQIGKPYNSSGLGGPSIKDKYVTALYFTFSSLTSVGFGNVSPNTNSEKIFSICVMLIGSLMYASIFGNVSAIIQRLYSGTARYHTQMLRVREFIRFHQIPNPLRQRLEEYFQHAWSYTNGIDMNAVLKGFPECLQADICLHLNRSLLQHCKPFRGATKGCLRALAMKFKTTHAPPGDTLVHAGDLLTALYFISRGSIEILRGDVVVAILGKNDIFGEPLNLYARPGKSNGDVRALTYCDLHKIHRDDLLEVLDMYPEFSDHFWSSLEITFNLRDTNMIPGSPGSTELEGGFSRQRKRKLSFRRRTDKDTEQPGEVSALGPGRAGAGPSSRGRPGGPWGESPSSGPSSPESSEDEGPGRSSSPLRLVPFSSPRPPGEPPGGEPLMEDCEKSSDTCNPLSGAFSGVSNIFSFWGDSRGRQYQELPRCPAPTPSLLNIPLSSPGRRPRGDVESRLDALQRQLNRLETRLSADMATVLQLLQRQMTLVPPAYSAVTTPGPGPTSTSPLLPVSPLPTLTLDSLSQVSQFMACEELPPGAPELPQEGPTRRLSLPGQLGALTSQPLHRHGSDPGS
Chain of Cannabinoid receptor 2 (Homo sapiens) (P34972 whole entry): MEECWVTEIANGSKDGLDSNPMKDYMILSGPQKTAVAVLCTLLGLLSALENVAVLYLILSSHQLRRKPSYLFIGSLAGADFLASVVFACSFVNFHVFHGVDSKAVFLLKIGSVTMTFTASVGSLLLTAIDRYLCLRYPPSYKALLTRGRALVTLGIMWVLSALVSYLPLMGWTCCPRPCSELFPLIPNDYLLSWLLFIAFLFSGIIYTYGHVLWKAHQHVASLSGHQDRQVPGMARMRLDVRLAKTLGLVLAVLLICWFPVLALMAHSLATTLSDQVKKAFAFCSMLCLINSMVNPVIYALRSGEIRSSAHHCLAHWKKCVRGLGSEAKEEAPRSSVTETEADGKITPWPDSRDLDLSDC
Chain of Muscarinic acetylcholine receptor M3 (Homo sapiens) (P20309 whole entry, looked up): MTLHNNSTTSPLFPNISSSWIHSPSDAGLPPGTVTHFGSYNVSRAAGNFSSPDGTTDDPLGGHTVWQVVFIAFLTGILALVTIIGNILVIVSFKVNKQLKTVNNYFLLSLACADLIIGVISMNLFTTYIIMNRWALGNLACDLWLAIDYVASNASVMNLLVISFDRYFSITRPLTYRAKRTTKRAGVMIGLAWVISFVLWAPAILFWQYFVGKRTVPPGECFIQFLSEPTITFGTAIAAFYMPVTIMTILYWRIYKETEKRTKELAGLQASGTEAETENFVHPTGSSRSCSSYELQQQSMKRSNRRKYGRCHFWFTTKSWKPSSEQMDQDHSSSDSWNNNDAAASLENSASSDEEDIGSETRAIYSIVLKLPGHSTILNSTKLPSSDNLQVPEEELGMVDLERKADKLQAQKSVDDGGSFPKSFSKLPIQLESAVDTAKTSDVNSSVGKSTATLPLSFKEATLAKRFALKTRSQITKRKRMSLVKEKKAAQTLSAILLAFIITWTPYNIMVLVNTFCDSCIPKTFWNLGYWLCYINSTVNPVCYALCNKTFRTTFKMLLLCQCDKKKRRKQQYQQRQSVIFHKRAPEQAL

Activity [1]: < 50%
Activity [2]: < 50%
Activity [3]: < 50%
Activity [4]: < 50%
inhibition [9]: < 50%
inhibition [10]: < 50%
inhibition [11]: < 50%
inhibition [12]: inactive
inhibition [13]: < 50%
concentration at 0.5 h [15]: 0.22 ng/mL
half-life [16]: 3.04 h
inhibition [17]: < 50%
Activity [18]: < 50%
inhibition [20]: < 50%
inhibition [21]: < 50%
inhibition [22]: < 50%
Activity [23]: < 50%
half-life [24]: 1.09 h
Activity [25]: < 50%
concentration at 2 h [26]: 1.97 ng/mL
Activity [27]: < 50%
Activity [28]: < 50%
inhibition [29]: inactive
inhibition [30]: Active
SMILES: C=C1C(=O)O[C@@H]2C[C@@]3(C)CC[C@@H](OC(=O)c4cnc(Cl)cc4Cl)C(=C)[C@@H]3C[C@H]12
Activity (BMDM [5]): Non-Toxic
IC50 [6]: 10.6 µM
Activity [7]: Non-Toxic
inhibition (BMDM [8]): Active
inhibition (HEK293T [14]): inactive
inhibition (HEK293T [19]): Active
Activity (Mus musculus): Active
inhibition (THP-1): Active
